Measurements: patent US20220264878A1, “HERBICIDAL COMPOSITION CONTAINING R-TYPE PYRIDYLOXY CARBOXYLIC ACID DERIVATIVE AND USE THEREOF” (Qingdao Kingagroot Chemical Compound Co., Ltd., priority 2019, published 2022)
Read-outs that look alike come from different tables or passages of the source.

Experiments:
Test in all cases: Post-emergence foliage spray, pot culture, fresh weight inhibition (Tables 1-48, 51-98, 101-148; 24 days)
Format in all cases: in vivo
Chenopodium album = tested on: Chenopodium album
Method in brief: (§1)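 Pot-grown weeds were thinned to 15 per pot (45 per treatment) and sprayed on foliage at the 5–6-leaf stage for grasses or the 6–7-leaf stage for broadleaves. Agents were dissolved in acetone with 0.1% Tween-80 and applied at 450 kg/ha spray volume and 0.3 MPa. Plants were then kept in a greenhouse. Above-ground fresh weight of survivors, with dead plants counted as zero, gave inhibition versus a solvent/emulsifier blank.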

Acalypha australis = tested on: Acalypha australis
Text: Table 1-48, 51-98, 101-148: Echinochloa crusgalli var. zelayensis, Eclipta prostrate, Galium aparine L., Alopecurus aequalis, Alopecurus japonicus, Lindernia procumbens, Veronica persica^1, Malachium aquaticum, Beckmannia syzigachne, Stellaria media were collected in Huai'an of Jiangsu Province; Commelina communis, Sonchus arvensis, Setaria glauca, Chloris virgata, Setaria faberi, Sonchus oleraceus L., Echinochloa oryzoides, Cirsium setosum, Xanthium strumarium were collected in Qiqiha'er of Heilongjiang Province; Sinapis arvensis, Veronica persica^2 were collected in Zhumadian of Henan Province; Ludwigia prostrate, Ammannia arenaria were collected in Zhuji of Zhejiang Province; Amaranthus retrojlexus, Descurainia sophia, Digitaria sanguinalis, Setaria viridis, Conyza Canadensis, Capsella bursa-pastoris, Eleusine indica, Ipomoea purpurea, Abutilon theophrasti, Chenopodium album, Acalypha australis, Solanum nigrum were collected in Qingdao of Shandong Province; Echinochloa caudate were collected in Pingluo of Ningxia Province.
The above weeds were cultivated by a pot culture method. […] Full and uniform weed seeds were selected, soaked in warm water at 25° C. for 6 hours, and germinated in a 28° C. biochemical incubator (darkness). The weed seeds that had just germinatedwere evenly placed on the surface of the soil and then covered with 0.5-1 cm soil according to the sizes of seeds.
The culture was carried out in a controllable sunlight greenhouse at 20 to 30° C., in natural light, and relative humidity of 57% to 72%.
The technical materials were all dissolved in acetone, and diluted with an aqueous solution containing 0.1% emulsifier Tween-80. The dilution is performed as required.
A ratio of the active ingredient A to the active ingredient B and amounts thereof in each group depends on the characteristics and toxicity of the two agents, as well as the main application purpose of a corresponding formulation. Based on the pre-tests in this study, the dosage of the active ingredient A and B applied alone and in combination were shown in the tables. Water containing the solvent and emulsifier same with the above groups but free of the agents was used as a blank control.
Table 1-48, 51-98, 101-148, 151-206: […] per treatment, that is, a total of 60 weeds were treated in one treatment.
Table 1-48, 51-98, 101-148: The agents were used for only once in the experiment. In the stage of weeds with 3˜4 leaves, the weeds were thinned out to maintain 15 weeds per pot and 45 weeds for each treatment, then continued to be cultured to 5˜6 leaves stage of grassy weeds, 6˜7 leaves stage of broadleaf weeds, and treated.
The well-cultured weeds were evenly placed on a platform with an area of 0.5 m^2, and a solution of agents was sprayed on the stems and leaves thereof by the 3WP-2000-type walking spray tower at a dosage of 450 kg/ha and at a spray pressure of 0.3 MPa. After all the solution was sprayed, the valve was closed. After 30 seconds, the door of the spray tower was opened, and the nutritional bowl was taken out. Then the valve was opened, and the spray tube was cleaned by spraying 50 ml of water.
A pot-culture method was employed. For the cultivation of weeds, please refer to the Section 1.1), and “Pesticide guidelines for laboratory bioactivity tests—herbicides”. As to a method for applying agents, please refer to the section 2.3.2), that is, a foliage treatment was employed. After the treatment, the weeds were routinely cultured in a greenhouse.
A method for investigating absolute number was employed, wherein whole seedlings of survival weeds were cut off with a blade along the soil surface, and the fresh weight of the weeds was weighed with an analytical balance. For dead weeds, the fresh weight thereof was zero.
Table 1-48, 51-98, 101-148, 207-216: The investigation was performed after 24 days of the treatment for only once.

Echinochloa caudate = conditions: Echinochloa, 576 h, read-out: Control effect (%) of B applied alone in corresponding dose
Method in brief: as §1

[1] = tested on: Echinochloa crusgalli var. zelayensis; conditions: Echinochloa crus-galli, 576 h, read-out: Control effect (%) of B applied alone in corresponding dose
Method in brief: as §1

Echinochloa oryzoides = conditions: Echinochloa oryzoides, 576 h, read-out: Control effect (%) of B applied alone in corresponding dose
Method in brief: as §1

## N#Cc1cc(Br)c(O)c(Br)c1 [bromoxynil]
Chenopodium album; bromoxynil 18.75 g a.i./ha
  Control effect (%) of B applied alone in corresponding dose: 3.1%
Chenopodium album; bromoxynil 37.5 g a.i./ha
  Control effect (%) of B applied alone in corresponding dose: 10.8%
Chenopodium album; bromoxynil 75 g a.i./ha
  Control effect (%) of B applied alone in corresponding dose: 57.7%
Chenopodium album; bromoxynil 150 g a.i./ha
  Control effect (%) of B applied alone in corresponding dose: 83.6%
Acalypha australis; B 18.75 g a.i./ha
  Control effect (%) of B applied alone in corresponding dose: 4.6%
Acalypha australis; B 37.5 g a.i./ha
  Control effect (%) of B applied alone in corresponding dose: 10.6%
Acalypha australis; B 75 g a.i./ha
  Control effect (%) of B applied alone in corresponding dose: 58.9%
Acalypha australis; B 150 g a.i./ha
  Control effect (%) of B applied alone in corresponding dose: 84.0%

## O=C(O)COC(=O)c1cc(Oc2ccc(C(F)(F)F)cc2Cl)ccc1[N+](=O)[O-] [fluoroglycofen]
Chenopodium album; Table 92, 0.9375 g a.i./ha
  Control effect (%) of B applied alone in corresponding dose: 2.3%
Chenopodium album; Table 92, 1.875 g a.i./ha
  Control effect (%) of B applied alone in corresponding dose: 12.8%
Chenopodium album; Table 92, 3.75 g a.i./ha
  Control effect (%) of B applied alone in corresponding dose: 40.0%
Chenopodium album; Table 92, 7.5 g a.i./ha
  Control effect (%) of B applied alone in corresponding dose: 70.6%
Acalypha australis; B 0.9375 g a.i./ha
  Control effect (%) of B applied alone in corresponding dose: 4.0%
Acalypha australis; B 1.875 g a.i./ha
  Control effect (%) of B applied alone in corresponding dose: 15.7%
Acalypha australis; B 3.75 g a.i./ha
  Control effect (%) of B applied alone in corresponding dose: 41.6%
Acalypha australis; B 7.5 g a.i./ha
  Control effect (%) of B applied alone in corresponding dose: 71.4%

## CS(=O)(=O)NC(=O)c1cc(Oc2ccc(C(F)(F)F)cc2Cl)ccc1[N+](=O)[O-] [fomesafen]
Chenopodium album; Table 91, 22.5 g a.i./ha
  Control effect (%) of B applied alone in corresponding dose: 2.7%
Chenopodium album; Table 91, 45 g a.i./ha
  Control effect (%) of B applied alone in corresponding dose: 18.6%
Chenopodium album; Table 91, 90 g a.i./ha
  Control effect (%) of B applied alone in corresponding dose: 45.4%
Chenopodium album; Table 91, 180 g a.i./ha
  Control effect (%) of B applied alone in corresponding dose: 81.9%
Acalypha australis; B 22.5 g a.i./ha
  Control effect (%) of B applied alone in corresponding dose: 6.4%
Acalypha australis; B 45 g a.i./ha
  Control effect (%) of B applied alone in corresponding dose: 12.6%
Acalypha australis; B 90 g a.i./ha
  Control effect (%) of B applied alone in corresponding dose: 46.9%
Acalypha australis; B 180 g a.i./ha
  Control effect (%) of B applied alone in corresponding dose: 82.4%

## CCOC(=O)C(C)OC(=O)c1cc(Oc2ccc(C(F)(F)F)cc2Cl)ccc1[N+](=O)[O-] (stereo not shown) [lactofen]
Chenopodium album; Table 94, 7.5 g a.i./ha
  Control effect (%) of B applied alone in corresponding dose: 3.3%
Chenopodium album; Table 94, 15 g a.i./ha
  Control effect (%) of B applied alone in corresponding dose: 10.4%
Chenopodium album; Table 94, 30 g a.i./ha
  Control effect (%) of B applied alone in corresponding dose: 39.7%
Chenopodium album; Table 94, 60 g a.i./ha
  Control effect (%) of B applied alone in corresponding dose: 65.4%
Acalypha australis; B 7.5 g a.i./ha
  Control effect (%) of B applied alone in corresponding dose: 2.7%
Acalypha australis; B 15 g a.i./ha
  Control effect (%) of B applied alone in corresponding dose: 13.5%
Acalypha australis; B 30 g a.i./ha
  Control effect (%) of B applied alone in corresponding dose: 41.4%
Acalypha australis; B 60 g a.i./ha
  Control effect (%) of B applied alone in corresponding dose: 66.4%

## CCOc1cc(Oc2ccc(C(F)(F)F)cc2Cl)ccc1[N+](=O)[O-] [oxyfluorfen]
Chenopodium album; Table 93, 7.5 g a.i./ha
  Control effect (%) of B applied alone in corresponding dose: 3.6%
Chenopodium album; Table 93, 15 g a.i./ha
  Control effect (%) of B applied alone in corresponding dose: 11.9%
Chenopodium album; Table 93, 30 g a.i./ha
  Control effect (%) of B applied alone in corresponding dose: 30.7%
Chenopodium album; Table 93, 60 g a.i./ha
  Control effect (%) of B applied alone in corresponding dose: 68.1%
Acalypha australis; B 7.5 g a.i./ha
  Control effect (%) of B applied alone in corresponding dose: 4.6%
Acalypha australis; B 15 g a.i./ha
  Control effect (%) of B applied alone in corresponding dose: 12.4%
Acalypha australis; B 30 g a.i./ha
  Control effect (%) of B applied alone in corresponding dose: 32.7%
Acalypha australis; B 60 g a.i./ha
  Control effect (%) of B applied alone in corresponding dose: 68.9%

## CCS(=O)(=O)c1cccnc1S(=O)(=O)NC(=O)Nc1nc(OC)cc(OC)n1 [rimsulfuron]
Echinochloa caudate; rimsulfuron 1.875 g a.i./ha
  pest or weed control at 1.875 g/ha: 5.5%
Echinochloa caudate; rimsulfuron 3.75 g a.i./ha
  pest or weed control at 3.75 g/ha: 25.3%
Echinochloa caudate; rimsulfuron 7.5 g a.i./ha
  pest or weed control at 7.5 g/ha: 37.9%
Echinochloa caudate; rimsulfuron 15 g a.i./ha
  pest or weed control at 15 g/ha: 65.8%
[1]; foliar, B 1.875 g a.i./ha, foliage spray, 24 days
  pest or weed control at 1.875 g/ha: 7.7%
[1]; foliar, B 3.75 g a.i./ha, foliage spray, 24 days
  pest or weed control at 3.75 g/ha: 25.5%
[1]; foliar, B 7.5 g a.i./ha, foliage spray, 24 days
  pest or weed control at 7.5 g/ha: 39.7%
[1]; foliar, B 15 g a.i./ha, foliage spray, 24 days
  pest or weed control at 15 g/ha: 67.7%
Echinochloa oryzoides; Table 106, 1.875 g a.i./ha
  pest or weed control at 1.875 g/ha: 10.3%
Echinochloa oryzoides; Table 106, 3.75 g a.i./ha
  pest or weed control at 3.75 g/ha: 26.9%
Echinochloa oryzoides; Table 106, 7.5 g a.i./ha
  pest or weed control at 7.5 g/ha: 43.7%
Echinochloa oryzoides; Table 106, 15 g a.i./ha
  pest or weed control at 15 g/ha: 69.6%

## Cc1nn(-c2cc(NS(C)(=O)=O)c(Cl)cc2Cl)c(=O)n1C(F)F [sulfentrazone]
Echinochloa caudate; Table 97, 1.875 g a.i./ha
  pest or weed control at 1.875 g/ha: 6.6%
Echinochloa caudate; Table 97, 3.75 g a.i./ha
  pest or weed control at 3.75 g/ha: 10.8%
Echinochloa caudate; Table 97, 7.5 g a.i./ha
  pest or weed control at 7.5 g/ha: 24.5%
Echinochloa caudate; Table 97, 15 g a.i./ha
  pest or weed control at 15 g/ha: 52.6%
[1]; sulfentrazone 1.875 g a.i./ha
  pest or weed control at 1.875 g/ha: 2.8%
[1]; sulfentrazone 3.75 g a.i./ha
  pest or weed control at 3.75 g/ha: 15.4%
[1]; sulfentrazone 7.5 g a.i./ha
  pest or weed control at 7.5 g/ha: 26.9%
[1]; sulfentrazone 15 g a.i./ha
  pest or weed control at 15 g/ha: 54.1%
Echinochloa oryzoides; B 1.875 g a.i./ha
  pest or weed control at 1.875 g/ha: 5.8%
Echinochloa oryzoides; B 3.75 g a.i./ha
  pest or weed control at 3.75 g/ha: 18.1%
Echinochloa oryzoides; B 7.5 g a.i./ha
  pest or weed control at 7.5 g/ha: 29.7%
Echinochloa oryzoides; B 15 g a.i./ha
  pest or weed control at 15 g/ha: 56.1%
